The results in this text go back to patent publication US9144239B2, “Macrocyclic picolinamides as fungicides” (DOW AGROSCIENCES LLC, priority 2012, dated 2015).

Like-named read-outs stand apart in the source and are kept apart here.

Type in all cases: in vivo
The subject of experiment [1] is Puccinia triticina; synonym: Puccinia recondita f. sp. tritici. Briefly: Fungicidal activity: wheat brown rust (PUCCRT), wheat seedlings. The conditions noted are these: 100 ppm, wheat. The procedure, abridged:
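Wheat (Yuma) seedlings at first-leaf stage, inoculated with Puccinia triticina spores before or after treatment, held overnight in dark dew room at 22° C, 100% RH, then greenhouse at 24° C. Acetone solutions diluted with nine volumes water containing 110 ppm Triton X-100, sprayed to run-off. Percent disease control derived from severity (0–100%) relative to untreated plants.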

For experiment [2], the system named is Uncinula necator. As to the kind of experiment: Fungicidal activity: grape powdery mildew (UNCINE). Particulars: Erysiphe necator, 24 h, 1 Day Protectant, read-out: Disease Control UNCINE 1 DP. How it is done:
Technical grades of materials were dissolved in acetone, which were then mixed with nine volumes of water containing 110 ppm Triton X-100. The fungicide solutions were applied onto wheat seedlings using an automated booth sprayer to run-off. All sprayed plants were allowed to air dry prior to further handling. Wheat plants (variety Yuma) were grown from seed in a greenhouse in 50% mineral soil/50% soil-less Metro mix until the first leaf was fully emerged, with 7-10 seedlings per pot. These plants were inoculated with an aqueous spore suspension of Septoria tritici either prior to or after fungicide treatments. After inoculation the plants were kept in 100% relative humidity (one day in a dark dew chamber followed by two to three days in a lighted dew chamber at 20° C.) to permit spores to germinate and infect the leaf. The plants were then transferred to a greenhouse set at 20° C. for disease to develop. When disease symptoms were fully expressed on the 1st leaves of untreated plants, infection levels were assessed on a scale of 0 to 100 percent disease severity. Percent disease control was calculated using the ratio of disease severity on treated plants relative to untreated plants. Evaluation of Fungicidal Activity: Grape Powdery Mildew (Uncinula necator; Bayer Code […]) Grape seedlings (variety Carignane) were grown in soil-less Metro mix, with one plant per pot, and used in the test when approximately one month old. Plants were inoculated 24 hr after fungicide treatment by shaking spores from infected leaves over test plants. Plants were maintained in a greenhouse set at 20° C. until disease was fully developed. Fungicide formulation, application and disease assessment on the sprayed leaves followed the procedures as described in the Example A.

For experiment [3], the system named is Cercospora beticola. Briefly: Fungicidal activity: leaf spot of sugar beets (CERCBE). The conditions noted are these: 24 h, 1 Day Protectant, sugar beet, read-out: Disease Control CERCBE 1DP. How it is done: Technical grades of materials were dissolved in acetone, which were then mixed with nine volumes of water containing 110 ppm Triton X-100. The fungicide solutions were applied onto wheat seedlings using an automated booth sprayer to run-off. All sprayed plants were allowed to air dry prior to further handling. Wheat plants (variety Yuma) were grown from seed in a greenhouse in 50% mineral soil/50% soil-less Metro mix until the first leaf was fully emerged, with 7-10 seedlings per pot. These plants were inoculated with an aqueous spore suspension of Septoria tritici either prior to or after fungicide treatments. After inoculation the plants were kept in 100% relative humidity (one day in a dark dew chamber followed by two to three days in a lighted dew chamber at 20° C.) to permit spores to germinate and infect the leaf. The plants were then transferred to a greenhouse set at 20° C. for disease to develop. When disease symptoms were fully expressed on the 1st leaves of untreated plants, infection levels were assessed on a scale of 0 to 100 percent disease severity. Percent disease control was calculated using the ratio of disease severity on treated plants relative to untreated plants. Evaluation of Fungicidal Activity: Leaf Spot of Sugar Beets (Cercospora beticola; Bayer Code CERCBE) Sugar beet plants (variety HH88) were grown in soil-less Metro mix and trimmed regularly to maintain a uniform plant size prior to test. Plants were inoculated with a spore suspension 24 hr after fungicide treatments. Inoculated plants were kept in a dew chamber at 22° C. for 48 hr then incubated in a greenhouse set at 24° C. under a clear plastic hood with bottom ventilation until disease symptoms were fully expressed. Fungicide formulation, application and disease assessment on the sprayed leaves followed the procedures as described in the Example A.

Experiment [4] concerns Blumeria graminis f.sp. hordei; synonym: Erysiphe graminis f.sp. hordei. As to the kind of experiment: Fungicidal activity: barley powdery mildew (ERYSGH). Particulars: 24 h, 1 Day Protectant, read-out: Disease Control ERYSGH 1DP. As to the method:
Technical grades of materials were dissolved in acetone, which were then mixed with nine volumes of water containing 110 ppm Triton X-100. The fungicide solutions were applied onto wheat seedlings using an automated booth sprayer to run-off. All sprayed plants were allowed to air dry prior to further handling. Wheat plants (variety Yuma) were grown from seed in a greenhouse in 50% mineral soil/50% soil-less Metro mix until the first leaf was fully emerged, with 7-10 seedlings per pot. These plants were inoculated with an aqueous spore suspension of Septoria tritici either prior to or after fungicide treatments. After inoculation the plants were kept in 100% relative humidity (one day in a dark dew chamber followed by two to three days in a lighted dew chamber at 20° C.) to permit spores to germinate and infect the leaf. The plants were then transferred to a greenhouse set at 20° C. for disease to develop. When disease symptoms were fully expressed on the 1st leaves of untreated plants, infection levels were assessed on a scale of 0 to 100 percent disease severity. Percent disease control was calculated using the ratio of disease severity on treated plants relative to untreated plants. Evaluation of Fungicidal Activity: Barley Powdery Mildew (Blumeria graminis f.sp. hordei; Synonym: Erysiphe graminis f.sp. hordei; Bayer Code […]) Barley seedlings (variety Harrington) were propagated in soil-less Metro mix, with each pot having 8 to 12 plants, and used in the test when first leaf was fully emerged. Test plants were inoculated by dusting with infected stock plants 24 hr after fungicide treatments. After inoculation the plants were kept in a greenhouse set at 20° C. for disease to develop. Fungicide formulation, application and disease assessment on the sprayed leaves followed the procedures as described in the Example A.

Turning to `COc1ccnc(C(=O)N[C@H]2COC[C@H](Oc3ccccc3)[C@@H](OCC(C)C)[C@H](C)OC2=O)c1OCOC(C)=O` [Compound 86], the pest or weed control at 100 ppm in experiment [1] (24 h, 1 Day Protectant, read-out: Disease Control PUCCRT 1DP) was 80 to 100%; in experiment [1] (72 h, 3 Day Curative, read-out: Disease Control PUCCRT 3DC), 80 to 100%; in experiment [2], 80 to 100%; in experiment [3] it was 80 to 100%; in experiment [4], 0 to 80%.
